The results in this text go back to paper PMC8832507 (Molecular cancer therapeutics, 2021).

The subject of one data set is tumor spheroids. The data set can be described thus: Tumor spheroid pharmacodynamic marker. Format: cell-based. Particulars: for Bystander penetration in spheroids by pH3 PD signal (in words): 25 nM AF680-ADC or AF680-trastuzumab, 24-48 hours; for Bystander penetration in spheroids by γH2A.X PD signal (in words): 24-72 hours.
Another data set deals with MDA-MB-468 cells. In words: Cytotoxicity. Particulars: for IC50: read-out: Free payload IC50, MDA-MB-468 cells. The class given is cell-based.
Another data set concerns HCC1954 cells. The data set can be described thus: Cytotoxicity. The class given is cell-based. Particulars: for IC50: read-out: Free payload IC50.
Data set [1] deals with HCC1954 (Ag+) and MDA-MB-468 (Ag−) co-culture. In words: Bystander co-culture assay. Format: cell-based.
The nature of a further data set: PAMPA permeability assay. Particulars: free payload.

Where a SMILES comes first, the peptide text is derived from it. [ ]: non-standard residue; d: D form. The star is where a group is joined. Dolaproine = CO[C@@H]([C@@H]1CCCN1)[C@@H](C)C(=O)O; Dil = CC[C@H](C)[C@H](NC)[C@@H](CC(=O)O)OC; X1 = C[C@@H](N*)[C@@H](O)c1ccccc1; NMeV = CN[C@H](C(=O)O)C(C)C

In the case of Ahx-maytansine, the “Bystander penetration in spheroids by pH3 PD signal (in words)” value in the data set with tumor spheroids is “detectable but localized bystander cell death”.

Take calicheamicin D [CaliD]: the “Bystander penetration in spheroids by γH2A.X PD signal (in words)” value with tumor spheroids (25 nM AF680-ADC) is given as “greatest bystander cell killing”. In addition, the “PD response in spheroids with potency matched doses (in words)” value with tumor spheroids (T-CaliG 75nM, T-CaliD 1nM) is recorded as “more efficient at reaching cells in the spheroid center”.

The term IC50 denotes the concentration that inhibits the measured activity by half. As to `CC[C@@]1(O)C(=O)OCc2c1cc1n(c2=O)Cc2c-1nc1cc(F)c(C)c3c1c2[C@@H](NC(=O)CO)CC3` [DXd], in the data set on MDA-MB-468 cells, the “Fold higher free payload sensitivity of MDA-MB-468 cells compared to HCC1954” value is reported as 2–3 fold. Besides, the results for the concentration for half-maximal inhibition (IC50) with MDA-MB-468 cells and in the data set with HCC1954 cells were approximately 2.3 nM and approximately 6.2 nM, respectively. The “Ag− cell death in co-culture” value in data set [1] (any concentration higher than 250 pM) is reported as 100%.

Consider T-DM1, for which the “Distance from spheroid edge of directly targeted cells showing pH3 signal” value with tumor spheroids (25 nM AF680-ADC) is listed as ~ 75 µm. Besides, the “Bystander penetration in spheroids by pH3 PD signal (in words)” value in the data set with tumor spheroids is “did not exhibit bystander killing even at 48 hours”. For the same compound, the “Ag+ cell death in co-culture (in words)” value in data set [1] (1 nM ADC, 6 days) is “complete Ag+ cell death”. Moreover, the “Ag− cell bystander toxicity in co-culture (in words)” value in data set [1] (1 nM ADC, 6 days, varying % Ag+ cells) is given as “no Ag− toxicity even at a 90% Ag+ cell percentage”.

As for calicheamicin G [CaliG], the “Bystander penetration in spheroids by γH2A.X PD signal (in words)” value in the data set on tumor spheroids (25 nM AF680-ADC) was “negligible”.

Regarding `CCc1c2c(nc3ccc(O)cc13)-c1cc3c(c(=O)n1C2)COC(=O)[C@]3(O)CC` [SN-38], in the data set on MDA-MB-468 cells, the “Fold higher free payload sensitivity of MDA-MB-468 cells compared to HCC1954” value is 2–3 fold and the IC50 is approximately 0.6 nM. Moreover, the “Bystander penetration in spheroids by γH2A.X PD signal (in words)” value in the data set on tumor spheroids (25 nM AF680-ADC) is “not readily apparent”. Further, the IC50 in the data set on HCC1954 cells is approximately 1.8 nM.

`CC[C@@]1(O)C(=O)OCc2c1cc1n(c2=O)Cc2c-1nc1cc(F)c(C)c3c1c2[C@@H](N)CC3` [exatecan]: in the data set “PAMPA permeability assay”, the “PAMPA permeability, fold higher than DXd” value is listed as ~ 2 fold and the “PAMPA permeability, fold higher than SN-38” value was ~ 5 fold. The “Bystander penetration in spheroids by γH2A.X PD signal (in words)” value in the data set with tumor spheroids (25 nM AF680-ADC) was “greatest PD signal at the spheroid center”. In addition, the “Bystander efficiency in modified co-culture (in words)” value in data set [1] (fixed number of Ag− cells, increasing number of Ag+ cells, fixed ADC concentration) was “more efficient”.

For the compound `CC[C@H](C)[C@@H]([C@@H](CC(=O)N1CCC[C@H]1[C@H](OC)[C@@H](C)C(=O)N[C@H](C)[C@@H](O)c1ccccc1)OC)N(C)C(=O)[C@@H](NC(=O)[C@@H](NC)C(C)C)C(C)C` [MMAE] (H-[NMeV]V[Dil][Dolaproine]-X1), the “PAMPA permeability, fold higher than either Ahx-maytansine or Lys-SMCC-DM1” value in the data set “PAMPA permeability assay” is approximately 10 fold. Moreover, the “Bystander penetration in spheroids by pH3 PD signal (in words)” value with tumor spheroids is on record as “pH3 signal throughout the spheroid at 48 hours”. Besides, the “Free payload IC50, fold more potent than either Ahx-maytansine or Lys-SMCC-DM1” value in the data set on HCC1954 cells is reported as “over 100 fold”.
